In ChEMBL document CHEMBL1201862, “PubChem BioAssay data set” (2004):
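In this assay, cells in 96-well plates receive the compound at five concentrations for 48 hours. Endpoints are linearly interpolated between the surrounding concentrations. GI50 marks 50% less growth.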 The source made the active and inactive calls. Cut-off read from the data, not from the text of the source: active = GI50 up to about 1.1 µM and inactive = higher.

Assays:
Test in all cases: DTP human tumour cell line panel, 48 h
UO-31 = tested on: UO-31
ACHN = tested on: ACHN
MOLT-4 = tested on: MOLT-4
LOX IMVI = tested on: LOX IMVI
SF-268 = tested on: SF-268
OVCAR-3 = tested on: OVCAR-3
SK-MEL-28 = tested on: SK-MEL-28
786-0 = tested on: 786-0
NCI-H226 = tested on: NCI-H226
KM12 = tested on: KM12
SW-620 = tested on: SW-620
K562 = tested on: K562
UACC-62 = tested on: UACC-62
HCC 2998 = tested on: HCC 2998
U-251 = tested on: U-251
SK-MEL-5 = tested on: SK-MEL-5
OVCAR-4 = tested on: OVCAR-4
HOP-62 = tested on: HOP-62
Malme-3M = tested on: Malme-3M

## CCC(CO)COC(=O)/C=C/C(=O)OCC(CC)CO (centres undefined)
UO-31
  GI50: > 100 µM (inactive)
ACHN
  GI50: > 100 µM (inactive)
MOLT-4
  GI50: 45.1 µM (inactive)
LOX IMVI
  GI50: > 100 µM (inactive)
SF-268
  GI50: > 84.3 µM (inactive)
OVCAR-3
  GI50: > 62.5 µM (inactive)
SK-MEL-28
  GI50: > 100 µM (inactive)
786-0
  GI50: > 100 µM (inactive)
NCI-H226
  GI50: > 100 µM (inactive)
KM12
  GI50: > 100 µM (inactive)
SW-620
  GI50: > 89.1 µM (inactive)
K562
  GI50: 48.6 µM (inactive)
UACC-62
  GI50: > 72.4 µM (inactive)
HCC 2998
  GI50: > 100 µM (inactive)
U-251
  GI50: > 100 µM (inactive)
SK-MEL-5
  GI50: > 100 µM (inactive)
OVCAR-4
  GI50: > 100 µM (inactive)
HOP-62
  GI50: > 100 µM (inactive)
Malme-3M
  GI50: > 61 µM (inactive)

## COc1ccc(/C=C/C(C(=O)O)C(=O)O)cc1
UO-31
  GI50: 64.3 µM (inactive)
ACHN
  GI50: 92 µM (inactive)
MOLT-4
  GI50: 25.8 µM (inactive)
LOX IMVI
  GI50: 16.1 µM (inactive)
SF-268
  GI50: 67.5 µM (inactive)
OVCAR-3
  GI50: 47.9 µM (inactive)
SK-MEL-28
  GI50: 22.5 µM (inactive)
786-0
  GI50: > 100 µM (inactive)
NCI-H226
  GI50: > 100 µM (inactive)
KM12
  GI50: 50.7 µM (inactive)
SW-620
  GI50: 31.5 µM (inactive)
K562
  GI50: 32.4 µM (inactive)
UACC-62
  GI50: 49.2 µM (inactive)
HCC 2998
  GI50: > 100 µM (inactive)
U-251
  GI50: > 100 µM (inactive)
SK-MEL-5
  GI50: 76.6 µM (inactive)
OVCAR-4
  GI50: 35.2 µM (inactive)
HOP-62
  GI50: > 100 µM (inactive)
Malme-3M
  GI50: 69.8 µM (inactive)

## COc1c(OC2OC(CO)C(O)C(O)C2O)cc2c(c1OC)-c1ccc(OC)c(=O)cc1C(NC(C)=O)CC2 (centres undefined)
UO-31
  GI50: > 100 µM (inactive)
ACHN
  GI50: > 100 µM (inactive)
MOLT-4
  GI50: > 100 µM (inactive)
LOX IMVI
  GI50: > 100 µM (inactive)
SF-268
  GI50: > 100 µM (inactive)
OVCAR-3
  GI50: > 89.7 µM (inactive)
SK-MEL-28
  GI50: 61 µM (inactive)
786-0
  GI50: > 100 µM (inactive)
NCI-H226
  GI50: > 100 µM (inactive)
KM12
  GI50: > 100 µM (inactive)
SW-620
  GI50: > 100 µM (inactive)
K562
  GI50: > 97.3 µM (inactive)
UACC-62
  GI50: 60.1 µM (inactive)
HCC 2998
  GI50: > 100 µM (inactive)
U-251
  GI50: > 100 µM (inactive)
SK-MEL-5
  GI50: 35.4 µM (inactive)
OVCAR-4
  GI50: > 100 µM (inactive)
HOP-62
  GI50: > 100 µM (inactive)
Malme-3M
  GI50: 81.7 µM (inactive)

## Cc1c(C(=O)C/C(=N/NC(=O)C[n+]2ccccc2)C(=O)Nc2ccccc2)[n+]([O-])c2ccccc2[n+]1[O-]
UO-31
  GI50: > 100 µM (inactive)
ACHN
  GI50: > 100 µM (inactive)
MOLT-4
  GI50: > 100 µM (inactive)
LOX IMVI
  GI50: > 100 µM (inactive)
SF-268
  GI50: > 100 µM (inactive)
OVCAR-3
  GI50: > 100 µM (inactive)
SK-MEL-28
  GI50: > 100 µM (inactive)
786-0
  GI50: > 100 µM (inactive)
NCI-H226
  GI50: > 100 µM (inactive)
KM12
  GI50: > 100 µM (inactive)
SW-620
  GI50: > 100 µM (inactive)
K562
  GI50: > 100 µM (inactive)
UACC-62
  GI50: > 100 µM (inactive)
HCC 2998
  GI50: > 100 µM (inactive)
U-251
  GI50: > 100 µM (inactive)
SK-MEL-5
  GI50: > 100 µM (inactive)
OVCAR-4
  GI50: > 100 µM (inactive)
HOP-62
  GI50: > 100 µM (inactive)
Malme-3M
  GI50: > 100 µM (inactive)

## O=C1c2ccccc2C(=O)c2c1nc1ccccc1c2-c1cncc(-c2c3c(nc4ccccc24)C(=O)c2ccccc2C3=O)c1
UO-31
  GI50: 1.55 µM (inactive)
ACHN
  GI50: 4.08 µM (inactive)
MOLT-4
  GI50: 0.418 µM (active)
LOX IMVI
  GI50: 1.67 µM (inactive)
SF-268
  GI50: 6.08 µM (inactive)
OVCAR-3
  GI50: 5.7 µM (inactive)
SK-MEL-28
  GI50: 12.4 µM (inactive)
786-0
  GI50: 9.82 µM (inactive)
NCI-H226
  GI50: 5.87 µM (inactive)
KM12
  GI50: 3.61 µM (inactive)
SW-620
  GI50: 6.15 µM (inactive)
K562
  GI50: 1.31 µM (inactive)
UACC-62
  GI50: 5.65 µM (inactive)
HCC 2998
  GI50: 18.5 µM (inactive)
U-251
  GI50: 8 µM (inactive)
SK-MEL-5
  GI50: 1.29 µM (inactive)
OVCAR-4
  GI50: 30.9 µM (inactive)
HOP-62
  GI50: 6.56 µM (inactive)
Malme-3M
  GI50: 11.9 µM (inactive)

## C=CCCCC(C#N)(c1ccccc1)N1CCCC1 (centres undefined)
UO-31
  GI50: > 100 µM (inactive)
ACHN
  GI50: > 100 µM (inactive)
MOLT-4
  GI50: > 100 µM (inactive)
LOX IMVI
  GI50: > 100 µM (inactive)
SF-268
  GI50: > 100 µM (inactive)
OVCAR-3
  GI50: > 100 µM (inactive)
SK-MEL-28
  GI50: > 100 µM (inactive)
786-0
  GI50: > 100 µM (inactive)
NCI-H226
  GI50: > 100 µM (inactive)
KM12
  GI50: > 100 µM (inactive)
SW-620
  GI50: > 100 µM (inactive)
K562
  GI50: > 100 µM (inactive)
UACC-62
  GI50: > 100 µM (inactive)
HCC 2998
  GI50: > 100 µM (inactive)
U-251
  GI50: > 100 µM (inactive)
SK-MEL-5
  GI50: > 100 µM (inactive)
OVCAR-4
  GI50: > 100 µM (inactive)
HOP-62
  GI50: > 100 µM (inactive)
Malme-3M
  GI50: > 100 µM (inactive)

## CCOC(=O)/C(=C/c1ccccc1Br)P(=O)(OCC)OCC
ACHN
  GI50: 2.57 µM (inactive)
MOLT-4
  GI50: 2.28 µM (inactive)
LOX IMVI
  GI50: 1.39 µM (inactive)
SF-268
  GI50: 2.9 µM (inactive)
OVCAR-3
  GI50: 2.81 µM (inactive)
SK-MEL-28
  GI50: 2.03 µM (inactive)
786-0
  GI50: 1.34 µM (inactive)
NCI-H226
  GI50: 3.07 µM (inactive)
KM12
  GI50: 1.87 µM (inactive)
SW-620
  GI50: 1.28 µM (inactive)
K562
  GI50: 0.298 µM (active)
UACC-62
  GI50: 1.24 µM (inactive)
HCC 2998
  GI50: 1.78 µM (inactive)
U-251
  GI50: 1.59 µM (inactive)
SK-MEL-5
  GI50: 1.63 µM (inactive)
OVCAR-4
  GI50: 1.58 µM (inactive)
HOP-62
  GI50: 3.72 µM (inactive)
Malme-3M
  GI50: 1.84 µM (inactive)

## N#CC(C#N)=C1NC(=O)CC(=O)N1
UO-31
  GI50: > 100 µM (inactive)
MOLT-4
  GI50: > 100 µM (inactive)
LOX IMVI
  GI50: > 100 µM (inactive)
SF-268
  GI50: > 100 µM (inactive)
OVCAR-3
  GI50: > 100 µM (inactive)
786-0
  GI50: > 100 µM (inactive)
NCI-H226
  GI50: > 100 µM (inactive)
KM12
  GI50: > 100 µM (inactive)
SW-620
  GI50: > 100 µM (inactive)
K562
  GI50: > 100 µM (inactive)
UACC-62
  GI50: > 100 µM (inactive)
HCC 2998
  GI50: > 100 µM (inactive)
U-251
  GI50: > 100 µM (inactive)
SK-MEL-5
  GI50: > 100 µM (inactive)
OVCAR-4
  GI50: > 100 µM (inactive)
HOP-62
  GI50: > 100 µM (inactive)
Malme-3M
  GI50: > 100 µM (inactive)
